Reference: patent publication US10835540B2, “Pharmaceutical use” (Lucolas-M.D. Ltd., priority 2011, dated 2020)

Test system: mastodynia
Test: Previous prescriptions for pre-menstrual breast pain (anamnesis, Example 8)
Format: in vivo, human
Conditions: Example 8 patient; for effect of previous prescription on breast pain symptoms: 'The same applies' in b116 refers to 'basically without any effect'
Description: Pre-menstrual syndrome with symptoms of strong pain in both breasts since puberty. Dynamic increase of the symptoms with extremely strong tactile sensitivity, strong sensation of swelling and tension with pain symptoms diffusely radiating into the chest and the arms, which becomes virtually unbearable until the beginning of the menstruation. Unable to work because of these conditions for 2-4 days per month since 3 years. Intimate touching not possible for 14 days per month due to the pathologic tactile hyper-sensitivity. Fading-away of the symptoms only 7-10 days after the beginning of the menstruation.

SMILES	effect of previous prescription on breast pain symptoms	effect on breast pain symptoms (20 mg)	side-effects (20 mg, mainly cardiovascular, led to quitting the therapy)
CC(C)C[C@H]1C(=O)N2CCC[C@H]2[C@]2(O)O[C@](NC(=O)[C@@H]3C=C4c5cccc6[nH]c(Br)c(c56)C[C@H]4N(C)C3)(C(C)C)C(=O)N12 [Bromocriptin]	The same applies		
C#C[C@]1(O)CC[C@H]2[C@@H]3CCC4=Cc5oncc5C[C@]4(C)[C@H]3CC[C@@]21C [Danazol]	The same applies		
CC/C(=C(\c1ccccc1)c1ccc(OCCN(C)C)cc1)c1ccccc1 [Tamoxifen]		considerable alleviation of the symptoms	uncontrolled increase of blood pressure
